Data on 18 compounds can be found in PubChem BioAssay (NCI).

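Results reflect a 48-hour exposure of cells in 96-well plates to compound at five concentrations. The concentration for 50% growth inhibition is given as GI50. Definition used: TGI = concentration required for complete inhibition of growth.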

What all share (experiment): inhibition of tumour cell growth, NCI panel, 48 h
The subject of test [1] is A549 NSCLC.
In test [2] the test system is IGROV1 ovarian.
Test [3] concerns SK-MEL-28 melanoma.
The subject of test [4] is OVCAR-8 ovarian.
Test [5] concerns CAKI-1 renal.
Test [6] deals with PC-3 prostate.
Test [7] has as its system T-47D breast.
The subject of test [8] is NCI/ADR-RES ovarian.
Test [9] deals with NCI-H460 lung.
Test [10] has as its system SN12C renal.

Consider `Nc1cc2[nH]cnc2c(=O)[nH]1`, for which the TGI is more than 300 µM in test [1]; more than 300 µM in [2]; more than 300 µM in test [3]; more than 300 µM in test [4]; 135 µM in test [5]; more than 300 µM in [6]. The TGI in [7], in test [8], in test [9] and in [10] was more than 300 µM each time.
Turning to `O=C(N/N=C/c1ccc(Cl)cc1)c1[nH]c2ccc(Cl)cc2c1-c1ccccc1`, the GI50 in [1] is 0.348 µM; in [2], 0.0523 µM; in [3] it was 2.77 µM; in [4] it was 0.132 µM; in test [5], 0.185 µM; in [6], 0.2 µM. The figures for the GI50 in test [7], in test [9] and in [10] were 38.2 µM, 0.328 µM and 0.206 µM, respectively. Further, the TGI in test [1] was 29.3 µM; in test [2] it was 12.1 µM; in test [3] it was more than 68.1 µM; in test [4] it was 32.6 µM; in [5] it was 0.645 µM; in test [6], 44.8 µM. Moreover, the TGI in [7] is more than 100 µM; in test [9], 3.99 µM; in test [10], more than 70.4 µM.
`CCCCCCCCCCCCCCCCCCNC(=O)OCC(CNS(=O)(=O)CCC[n+]1cccc2ccccc21)COC` (stereo not drawn): the TGI in [1] was 25.9 µM; in test [3], more than 35.1 µM; in [4], more than 26.1 µM; in [5] it was 51.3 µM; in test [6] it was 4.84 µM; in [7], more than 100 µM. Also, the TGI in [8] is 34.2 µM; in test [9] it was more than 100 µM; in test [10], 20.8 µM.
`CNCCNc1nc2ccccc2c2c(=O)c3cc(F)ccc3sc12`: the GI50 in test [1] is 1.65 µM; in test [2], 1.75 µM; in test [3], 1.85 µM; in test [4], 1.85 µM; in test [5], 1.38 µM; in [6] it was 1.52 µM. The GI50 is 1.8 µM in [7], 1.82 µM in test [8], 1.78 µM in [9] and 1.61 µM in test [10]. Besides, the TGI in test [1] worked out at 3.29 µM; in [2], 3.34 µM; in test [3] it was 3.38 µM; in [4], 3.84 µM; in test [5], 2.77 µM; in test [6], 3.3 µM. Moreover, the TGI came to 4.12 µM in test [7], 3.83 µM in test [8], 3.32 µM in [9] and 3.29 µM in [10].
`C/C=C(/C)c1cnc(CC(C)C)c(=O)[nH]1`: the TGI in test [1], in [2], in test [3], in test [4], in test [5] and in test [6] was more than 100 µM in each case. Moreover, the TGI in test [7], in test [9] and in test [10] was more than 100 µM in each case.
Turning to `COc1nc(C)cc2c(=O)n(-c3ccccc3)n(CC(O)CN3CCN(c4ccc(Cl)cc4)CC3)c(=O)c12` (stereo not drawn), the GI50 in test [1] is more than 50 µM; in test [2] it was more than 50 µM; in test [3] it was more than 50 µM; in test [5], more than 50 µM; in test [6], 25.9 µM; in test [7], more than 50 µM. Also, the GI50 in test [8], in test [9] and in test [10] was more than 50 µM each time. The TGI in test [1], in [2], in test [3], in test [5], in test [6] and in test [7] was more than 50 µM each time. The TGI in [8], in [9] and in test [10] was more than 50 µM each time.
For `Cc1cc(=O)oc2cc(OC(=O)N(CCCl)CCCl)ccc12`, the TGI in test [1], in test [2], in test [3], in [4], in test [5] and in test [6] was more than 100 µM each time. Moreover, the TGI in test [7], in test [8], in test [9] and in [10] was more than 100 µM each time.
On to `Cn1cc(C2=C(c3cn(C)c4cc(N)ccc34)C(=O)NC2=O)c2ccccc21`, for which the GI50 is 3.09 µM in [1]; 6.05 µM in test [2]; 4.71 µM in test [3]; 4.18 µM in [4]; 1.39 µM in test [5]; 2.92 µM in test [6]. Also, the GI50 is 5.7 µM in test [7], 4.58 µM in test [8], 1.4 µM in test [9] and 3.44 µM in [10]. Also, the TGI in test [1] was more than 25 µM; in [2] it was 17.6 µM; in test [3], 18.4 µM; in [4], more than 25 µM; in test [5], more than 15 µM; in [6], more than 20.6 µM. The TGI was more than 21.6 µM in test [7], 24.2 µM in test [8], more than 25 µM in [9] and 17 µM in test [10].
For the compound `COC(=O)[C@]1(C)CCC[C@@]2(C)[C@@H]3C[C@@H]4[C@H]5C[C@@]3(CC[C@@H]21)C[C@@]45C`, the TGI in test [1] worked out at 28 µM; in test [2] it was 36 µM; in test [3], 47.1 µM; in test [4], 30.6 µM; in [5] it was 30 µM; in [6], 29.3 µM. Moreover, the TGI in test [7] is 62.2 µM; in test [8], 32.1 µM; in [10] it was 33.5 µM.
Consider `CCCCCCNC(=O)Oc1ccc(/C(=C(/C)Cc2ccc(OC)cc2)c2ccc(OCCN(C)C)cc2)cc1`, for which the GI50 in test [1] is 5.65 µM; in test [2], 4.62 µM; in test [3], 3.88 µM; in test [4] it was 5.32 µM; in [5], 5.39 µM; in test [6] it was 1.66 µM. Further, the GI50 in test [7] is 1.41 µM; in [8] it was 5.07 µM; in [9], 4.22 µM; in [10] it was 4.84 µM. The TGI in test [1] came to 10.8 µM; in [2], 9.6 µM; in test [3], 8.06 µM; in [4], 11.1 µM; in test [5], 9.95 µM; in [6] it was 5.96 µM. Further, the TGI in test [7] is 7.12 µM; in [8] it was 10.7 µM; in test [9] it was 8.93 µM; in [10] it was 9.44 µM.
`CN(C)CCCc1c2ccccc2nc2ccc(Cl)cc12`: the TGI was found to be 28.3 µM in test [1]; 31 µM in test [2]; 37.3 µM in test [3]; 32.6 µM in [4]; 31.4 µM in [5]; 37 µM in [6]. The TGI in test [7] is more than 100 µM; in test [8], 52 µM; in test [9], 25.3 µM; in test [10], 26.1 µM.
`CCOC(=O)Nc1nc2cc(OCC)ccc2s1`: the GI50 in test [1] was 9.83 µM; in test [2], more than 91.1 µM; in [3], more than 100 µM; in [4], more than 76.1 µM; in [5] it was more than 75.4 µM; in test [6], more than 100 µM. Also, the GI50 in test [7] was 35 µM; in test [8], 6.02 µM; in test [9] it was 8.02 µM; in test [10], more than 84.4 µM. Further, the TGI in test [1], in test [2], in test [3], in [4], in [5] and in test [6] was more than 100 µM each time. Besides, the TGI in test [7], in [8], in test [9] and in test [10] was more than 100 µM each time.
As to `CCN(CC)CCOc1c(OC)c(Br)cc2c(C)c(C(=O)OC)oc12`, the GI50 in test [1] was 10 µM; in test [2], 1.4 µM; in test [4] it was 2.13 µM; in [5], 1.26 µM; in test [6], 0.368 µM; in [7] it was 0.188 µM. Also, the GI50 in [8] is 6.45 µM; in test [9], 1.31 µM; in test [10] it was 0.92 µM. Further, the TGI in test [1] amounted to 20.2 µM; in test [2] it was 7.05 µM; in test [4], 7.88 µM; in test [5], 3.5 µM; in test [6], 1.03 µM; in test [7], 0.488 µM. Besides, the TGI in [8] amounted to 12.8 µM; in test [9] it was 3.75 µM; in test [10] it was 2.36 µM.
Turning to `COC(=O)c1cc(-c2ccc(OC)cc2)[nH]c1N/N=C/c1c(Cl)cccc1Cl`, the GI50 was 0.361 µM in test [1]; 0.387 µM in test [3]; 0.442 µM in test [4]; 0.351 µM in test [5]; 0.261 µM in [6]; 0.505 µM in [7]. Also, the GI50 is 0.16 µM in test [8], 0.201 µM in [9] and 0.507 µM in test [10]. In addition, the TGI in [1] was 4.48 µM; in test [3] it was more than 100 µM; in [4], 5.16 µM; in test [5], 15.5 µM; in [6] it was 3.78 µM; in [7], more than 31.8 µM. Further, the results for the TGI in test [8], in test [9] and in test [10] were 5.11 µM, 0.992 µM and 18.7 µM, respectively.
Turning to `CCCCCCNC(=O)n1cc(F)c(=O)[nH]c1=O`, the GI50 is 0.738 µM in [1]; 3.96 µM in test [3]; 3.29 µM in [4]; 1.64 µM in test [5]; 10.1 µM in test [6]; 11.7 µM in test [7]. The GI50 in test [8] is 12 µM; in [9] it was 0.564 µM; in test [10], 4.29 µM. In addition, the TGI was more than 100 µM in test [1]; 27.7 µM in [3]; 24.1 µM in [4]; 18.4 µM in test [5]; 27.3 µM in [6]; 47.5 µM in test [7]. The TGI in [8] amounted to 92.5 µM; in test [9] it was 17.7 µM; in test [10], 24.3 µM.
With `Cc1nn(CNc2ccccc2C(F)(F)F)c(=S)n1/N=C/c1ccc(F)cc1`, the GI50 is more than 100 µM in [1]; more than 100 µM in test [2]; 50 µM in test [3]; more than 100 µM in test [4]; more than 100 µM in test [5]; 97.9 µM in [6]. The GI50 in test [7], in test [8] and in [9] was more than 100 µM in each case. Besides, the TGI in test [1], in test [2], in [3], in test [4], in test [5] and in test [6] was more than 100 µM each time. Besides, the TGI in test [7], in test [8] and in test [9] was more than 100 µM each time.
As for `C[C@]12CC[C@H]3[C@@H](CC[C@]4(O)C[C@@H](O)CC[C@]34CO)[C@@]1(O)CC[C@@H]2C1=CC(=O)OC1`, the TGI is 1.74 µM in [1]; more than 100 µM in test [2]; 22.5 µM in test [3]; 3.82 µM in test [4]; 10.5 µM in test [6]; 13.9 µM in test [7]. The TGI in test [8] was 3.8 µM; in test [9], 1.81 µM; in [10] it was 11 µM.
For the compound `COc1cc2c3c(ncc2c(OC)c1OC)-c1cc2c(cc1C3)OCO2`, the GI50 in test [1] was 82.9 µM; in test [3], 39.1 µM; in [5], 42.5 µM; in test [6], more than 100 µM; in [7], 26.2 µM; in test [8], 36.9 µM. Also, the GI50 in test [9] was more than 100 µM. The TGI is more than 100 µM in test [1]; more than 100 µM in test [3]; more than 100 µM in [5]; more than 100 µM in test [6]; 89.8 µM in test [7]; more than 100 µM in [8]. This compound also registered a TGI in test [9] of more than 100 µM.
